Test results taken from ChEMBL document CHEMBL1147118, “Efficacy of oseltamivir therapy in ferrets inoculated with different clades of H5N1 influenza virus” (2007).
The source made the active and inactive calls. The calls are words filed in the database; no cut-off is given here.

Tests used:
Influenza A virus [1] = assay: Antiviral activity against 10 EID50 influenza A/Vietnam/1203/04 H5N1 virus inoculated ferrets assessed as day of death at 5 mg/kg after 4 hrs of inoculum for 5 days; type: functional
Influenza A virus [2] = assay: Antiviral activity against 10^2 EID50 influenza A/Vietnam/1203/04 H5N1 virus inoculated ferrets assessed as inhibition of virus spread in spleen at 5 mg/kg after 4 hrs of inoculum for 5 days; type: functional, organism-based; design: dose 5 mg/kg
Influenza A virus [3] = assay: Antiviral activity against 10^6 EID50 influenza A/turkey/15/06 H5N1 virus inoculated ferrets assessed as increase in temperature at 10 mg/kg twice daily after 24 hrs inoculum for 5 days; type: functional, Influenza A virus (A/Turkey/15/2006(H5N1))
Influenza A virus [4] = assay: Inhibition of 10^2 EID50 influenza A/Vietnam/1203/04 H5N1 virus replication in ferrets spleen at 25 mg/kg after 24 hrs of inoculum for 5 days; type: functional, organism-based; design: dose 25 mg/kg
Influenza A virus [5] = assay: Inhibition of 10^2 EID50 influenza A/Vietnam/1203/04 H5N1 virus replication in ferrets brain at 25 mg/kg after 24 hrs of inoculum for 5 days; type: functional, organism-based; design: dose 25 mg/kg
Influenza A virus [6] = assay: Antiviral activity against 10^2 EID50 influenza A/Vietnam/1203/04 H5N1 virus inoculated ferrets assessed as increase in temperature at 25 mg/kg after 24 hrs of inoculum for 5 days; type: functional
Influenza A virus [7] = assay: Antiviral activity against 10^2 EID50 influenza A/Vietnam/1203/04 H5N1 virus inoculated ferrets assessed as weight loss at 10 mg/kg after 24 hrs of inoculum for 5 days; type: functional
Influenza A virus [8] = assay: Inhibition of 10^2 EID50 influenza A/Vietnam/1203/04 H5N1 virus replication in ferrets liver at 25 mg/kg after 24 hrs of inoculum for 5 days; type: functional, organism-based; design: dose 25 mg/kg
Influenza A virus [9] = assay: Inhibition of 10^2 EID50 influenza A/Vietnam/1203/04 H5N1 virus replication in ferrets spleen at 10 mg/kg after 24 hrs of inoculum for 5 days; type: functional, organism-based; design: dose 10 mg/kg
Influenza A virus [10] = assay: Antiviral activity against 10^6 EID50 influenza A/turkey/15/06 H5N1 virus inoculated ferrets assessed as weight loss at 10 mg/kg twice daily after 24 hrs inoculum for 5 days; type: functional, Influenza A virus (A/Turkey/15/2006(H5N1))
Influenza A virus [11] = assay: Survival of 10^6 EID50 influenza A/turkey/15/06 H5N1 virus inoculated ferrets at 10 mg/kg twice daily after 24 hrs inoculum for 5 days; type: functional, organism-based; design: dose 10 mg/kg; conditions: Influenza A virus (A/Turkey/15/2006(H5N1))
Influenza A virus [12] = assay: Survival of 10^2 EID50 influenza A/Vietnam/1203/04 H5N1 virus inoculated ferrets at 5 mg/kg after 4 hrs of inoculum for 5 days; type: functional, organism-based; design: dose 5 mg/kg
Influenza A virus [13] = assay: Survival of 10^2 EID50 influenza A/Vietnam/1203/04 H5N1 virus inoculated ferrets at 10 mg/kg after 24 hrs of inoculum for 5 days; type: functional, organism-based; design: dose 10 mg/kg
Influenza A virus [14] = assay: Antiviral activity against 10^2 EID50 influenza A/Vietnam/1203/04 H5N1 virus inoculated ferrets assessed as weight loss at 25 mg/kg after 24 hrs of inoculum for 5 days; type: functional
Influenza A virus [15] = assay: Inhibition of 10^2 EID50 influenza A/Vietnam/1203/04 H5N1 virus replication in ferrets lungs at 25 mg/kg after 24 hrs of inoculum for 5 days; type: functional, organism-based; design: dose 25 mg/kg
Influenza A virus [16] = assay: Survival of 10^2 EID50 influenza A/Vietnam/1203/04 H5N1 virus inoculated ferrets at 25 mg/kg after 24 hrs of inoculum for 5 days; type: functional, organism-based; design: dose 25 mg/kg
Influenza A virus [17] = assay: Antiviral activity against 10^2 EID50 influenza A/Vietnam/1203/04 H5N1 virus inoculated ferrets assessed as day of death at 5 mg/kg after 4 hrs of inoculum for 5 days; type: functional
Influenza A virus [18] = assay: Antiviral activity against 10^6 EID50 influenza A/turkey/15/06 H5N1 virus inoculated ferrets assessed as viral titer in brain at 10 mg/kg after 24 hrs of inoculum for 5 days; type: functional, Influenza A virus (A/Turkey/15/2006(H5N1))
Influenza A virus [19] = assay: Antiviral activity against 10^6 EID50 influenza A/turkey/15/06 H5N1 virus inoculated ferrets assessed as viral titer in lungs at 10 mg/kg after 24 hrs of inoculum for 5 days; type: functional, Influenza A virus (A/Turkey/15/2006(H5N1))
Influenza A virus [20] = assay: Inhibition of 10^2 EID50 influenza A/Vietnam/1203/04 H5N1 virus replication in ferrets liver at 10 mg/kg after 24 hrs of inoculum for 5 days; type: functional, organism-based; design: dose 10 mg/kg
Influenza A virus [21] = assay: Inhibition of influenza A/Vietnam/1203/04 virus replication in ferrets upper respiratory tract at 10 mg/kg twice daily after 24 hrs of inoculum for 5 days; type: functional, organism-based; design: dose 10 mg/kg
Influenza A virus [22] = assay: Antiviral activity against 10^2 EID50 influenza A/Vietnam/1203/04 H5N1 virus inoculated ferrets assessed as increase in temperature at 10 mg/kg after 24 hrs of inoculum for 5 days; type: functional
Influenza A virus [23] = assay: Antiviral activity against 10^2 EID50 influenza A/Vietnam/1203/04 H5N1 virus inoculated ferrets assessed as increase in temperature at 5 mg/kg after 4 hrs of inoculum for 5 days; type: functional
Influenza A virus [24] = assay: Antiviral activity against 10^2 EID50 influenza A/Vietnam/1203/04 H5N1 virus inoculated ferrets assessed as inhibition of virus spread in brain at 5 mg/kg after 4 hrs of inoculum for 5days; type: functional, organism-based; design: dose 5 mg/kg
Influenza A virus [25] = assay: Antiviral activity against 10^2 EID50 influenza A/Vietnam/1203/04 H5N1 virus inoculated ferrets assessed as inhibition of virus spread in liver at 5 mg/kg after 4 hrs of inoculum for 5 days; type: functional, organism-based; design: dose 5 mg/kg
Influenza A virus [26] = assay: Antiviral activity against 10^2 EID50 influenza A/Vietnam/1203/04 H5N1 virus inoculated ferrets assessed as maximal change in weight loss at 5 mg/kg after 4 hrs of inoculum for 5 days; type: functional
Influenza A virus [27] = assay: Inhibition of 10^2 EID50 influenza A/Vietnam/1203/04 H5N1 virus replication in ferrets lungs at 10 mg/kg after 24 hrs of inoculum for 5 days; type: functional, organism-based; design: dose 10 mg/kg
Influenza A virus [28] = assay: Antiviral activity against 10^2 EID50 influenza A/Vietnam/1203/04 H5N1 virus inoculated ferrets assessed as inhibition of viral replication in lungs at 5 mg/kg after 4 hrs of inoculum for 5 days; type: functional, organism-based; design: dose 5 mg/kg
Influenza A virus [29] = assay: Survival of 10 EID50 influenza A/Vietnam/1203/04 H5N1 virus inoculated ferrets at 5 mg/kg after 4 hrs of inoculum for 5 days; type: functional, organism-based; design: dose 5 mg/kg
Influenza A virus [30] = assay: Antiviral activity against 10^2 EID50 influenza A/Vietnam/1203/04 H5N1 virus inoculated ferrets assessed as inhibition of viral replication in small intestine at 5 mg/kg after 4 hrs of inoculum for 5 days; type: functional, organism-based; design: dose 5 mg/kg
Influenza A virus [31] = assay: Antiviral activity against 10 EID50 influenza A/Vietnam/1203/04 H5N1 virus inoculated ferrets assessed as increase in temperature at 5 mg/kg after 4 hrs of inoculum for 5 days; type: functional
Influenza A virus [32] = assay: Antiviral activity against 10^2 EID50 influenza A/Vietnam/1203/04 H5N1 virus inoculated ferrets assessed as day of death at 10 mg/kg after 24 hrs of inoculum for 5 days; type: functional
Influenza A virus [33] = assay: Antiviral activity against 10 EID50 influenza A/Vietnam/1203/04 H5N1 virus inoculated ferrets assessed as weight loss at 5 mg/kg after 4 hrs of inoculum for 5 days; type: functional
Influenza A virus [34] = assay: Antiviral activity against 10^2 EID50 influenza A/Vietnam/1203/04 H5N1 virus inoculated ferrets assessed as day of death at 25 mg/kg after 24 hrs of inoculum for 5 days; type: functional

`CCOC(=O)C1=C[C@@H](OC(CC)CC)[C@H](NC(C)=O)[C@@H](N)C1` [OSELTAMIVIR] was tested, and the Activity (Influenza A virus [1]) was >21 days, the Activity (Influenza A virus [2]) was “inactive” and the Activity (Influenza A virus [3]) was 6%. For the same compound, the Activity (Influenza A virus [4]) was “Active”, the Activity (Influenza A virus [5]) was “inactive” and the Activity (Influenza A virus [6]) was 6%. For the same compound, the Activity (Influenza A virus [7]) was 22.1%, the Activity (Influenza A virus [8]) was “Active” and the Activity (Influenza A virus [9]) was “Active”. For the same compound, the Activity (Influenza A virus [10]) was 17.9%, the Activity (Influenza A virus [11]) was “Active” and the Activity (Influenza A virus [12]) was “Active”. The Activity (Influenza A virus [13]) was “inactive”, the Activity (Influenza A virus [14]) was 13.4% and the Activity (Influenza A virus [15]) was “Active”. The Activity (Influenza A virus [16]) was “Active”, the Activity (Influenza A virus [17]) was 21 days and the log10EID50/g (Influenza A virus [18]) was <0.75. For the same compound, the log10EID50/g (Influenza A virus [19]) was <0.75, the Activity (Influenza A virus [20]) was “Active” and the Activity (Influenza A virus [21]) was “inactive”. For the same compound, the Activity (Influenza A virus [22]) was 5.7%, the Activity (Influenza A virus [23]) was 3.4% and the Activity (Influenza A virus [24]) was “inactive”. The Activity (Influenza A virus [25]) was “inactive”, the Activity (Influenza A virus [26]) was 20.4% and the Activity (Influenza A virus [27]) was “Active”. The Activity (Influenza A virus [28]) was “Active”, the Activity (Influenza A virus [29]) was “Active” and the Activity (Influenza A virus [30]) was “Active”. It also gave an Activity (Influenza A virus [31]) of 5%, an Activity (Influenza A virus [32]) of 7.3 days and an Activity (Influenza A virus [33]) of 8.8%. For the same compound, the Activity (Influenza A virus [34]) was >21 days.
